# Measured values as given in ChEMBL document CHEMBL5303761, “Data for DCP probe BI-3231” (2023).
# What was measured:
# [1] = target: Beta-1 adrenergic receptor (Homo sapiens) (UniProt P08588); test: BETA1/HUM Eurofins SafetyScreen44 (BI); settings: Compound concentration 10.0 uM
# [2] = target: Adenosine receptor A2a (Homo sapiens) (UniProt P29274); test: A2A/H Eurofins SafetyScreen44 (BI); settings: filed as antagonist, Compound concentration 10.0 uM
# [3] = target: Sodium-dependent dopamine transporter (Homo sapiens) (UniProt Q01959); settings: Compound concentration 10.0 uM
# [4] = target: Endothelin-1 receptor (Homo sapiens) (UniProt P25101); test: ETA/H Eurofins SafetyScreen44 (BI); settings: Compound concentration 10.0 uM
# [5] = target: Mu-type opioid receptor (Homo sapiens) (UniProt P35372); test: MU/H Eurofins SafetyScreen44 (BI); settings: Compound concentration 10.0 uM
# [6] = target: Alpha-1D adrenergic receptor (Homo sapiens) (UniProt P25100); settings: Compound concentration 10.0 uM
# [7] = target: Alpha-1B adrenergic receptor (Homo sapiens) (UniProt P35368); settings: Compound concentration 10.0 uM
# [8] = target: Cholecystokinin receptor type A (Homo sapiens) (UniProt P32238); test: CCKA/H Eurofins SafetyScreen44 (BI); settings: Compound concentration 10.0 uM
# [9] = target: 5-hydroxytryptamine receptor 2A (Homo sapiens) (UniProt P28223); test: 5HT2AH_AGON Eurofins SafetyScreen44 (BI); settings: filed as agonist, Compound concentration 10.0 uM
# [10] = target: Angiotensin-converting enzyme (Homo sapiens) (UniProt P12821); test: ACE(HU_AMTCH400) Eurofins SafetyScreen44 (BI); settings: Compound concentration 10.0 uM
# [11] = target: L-type Ca2+ channel (dihydropyridine site), Cav1.2 alpha-1C (Rattus norvegicus, UniProt P22002); test: CA+/DHPSI/R Eurofins SafetyScreen44 (BI); settings: rat brain, probe [3H](+)PN200-110, compound concentration 10 uM, read-out: % Ctrl
# [12] = target: Cannabinoid receptor 2 (Homo sapiens) (UniProt P34972); test: CB2/PERIPH/H Eurofins SafetyScreen44 (BI); settings: Compound concentration 10.0 uM
# [13] = target: 5-hydroxytryptamine receptor 1B (Homo sapiens) (UniProt P28222); test: 5HT1B(H) Eurofins SafetyScreen44 (BI); settings: filed as antagonist, Compound concentration 10.0 uM
# [14] = target: GABA-A receptor; anion channel (Rattus norvegicus) (UniProt O09028+P15431+P18506+P18508+P19969+P20236+P23574+P23576+P28471+P28473+P30191+P62813+P63079+P63138+Q91ZM7+Q9ES14); test: BZD/CENTR/R Eurofins SafetyScreen44 (BI); format: protein-complex assay; settings: Compound concentration 10.0 uM
# [15] = target: Delta-type opioid receptor (Homo sapiens) (UniProt P41143); test: DELTA2/H Eurofins SafetyScreen44 (BI); settings: Compound concentration 10.0 uM
# [16] = target: D(1B) dopamine receptor (Homo sapiens) (UniProt P21918); settings: Compound concentration 10.0 uM
# [17] = target: Delta-type opioid receptor (Homo sapiens) (UniProt P41143); settings: Compound concentration 10.0 uM
# [18] = target: T1, Muscarinic acetylcholine receptor M2 (Homo sapiens) (UniProt P08172); settings: Compound concentration 10.0 uM
# T1 sequence (whole entry): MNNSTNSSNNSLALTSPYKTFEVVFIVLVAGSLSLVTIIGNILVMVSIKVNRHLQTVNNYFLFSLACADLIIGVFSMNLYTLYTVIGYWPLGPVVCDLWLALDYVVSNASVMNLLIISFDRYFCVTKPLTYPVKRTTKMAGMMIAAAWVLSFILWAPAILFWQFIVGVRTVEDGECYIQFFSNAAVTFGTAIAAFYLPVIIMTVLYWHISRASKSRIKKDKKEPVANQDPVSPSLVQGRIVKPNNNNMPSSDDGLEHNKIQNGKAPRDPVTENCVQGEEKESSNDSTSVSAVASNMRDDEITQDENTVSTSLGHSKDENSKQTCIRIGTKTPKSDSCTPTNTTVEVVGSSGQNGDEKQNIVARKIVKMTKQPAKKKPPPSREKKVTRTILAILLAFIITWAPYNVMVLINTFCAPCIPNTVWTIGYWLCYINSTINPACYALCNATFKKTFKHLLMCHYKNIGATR
# [19] = target: 5-hydroxytryptamine receptor 1B (Homo sapiens) (UniProt P28222); settings: Compound concentration 10.0 uM
# [20] = target: D(2) dopamine receptor (Homo sapiens) (UniProt P14416); test: D2SH_AGON Eurofins SafetyScreen44 (BI); settings: filed as agonist, Compound concentration 10.0 uM
# [21] = target: Sodium-dependent noradrenaline transporter (Homo sapiens) (UniProt P23975); test: NEUP/H Eurofins SafetyScreen44 (BI); settings: Compound concentration 10.0 uM
# [22] = target: 5-hydroxytryptamine receptor 2A (Homo sapiens) (UniProt P28223); settings: Compound concentration 10.0 uM
# [23] = target: Cannabinoid receptor 1 (Homo sapiens) (UniProt P21554); test: CB1(HU)_AGON Eurofins SafetyScreen44 (BI); settings: filed as agonist; Compound concentration 10.0 uM
# [24] = target: Tyrosine-protein kinase Lck (Homo sapiens) (UniProt P06239); test: LCK_CE Eurofins SafetyScreen44 (BI); settings: Compound concentration 10.0 uM
# [25] = target: Prostaglandin G/H synthase 1 (Homo sapiens) (UniProt P23219); test: COX-1 Eurofins SafetyScreen44 (BI); settings: Compound concentration 10.0 uM
# [26] = target: T2, Alpha-2A adrenergic receptor (Homo sapiens) (UniProt P08913); settings: Compound concentration 10.0 uM
# T2 sequence (whole entry): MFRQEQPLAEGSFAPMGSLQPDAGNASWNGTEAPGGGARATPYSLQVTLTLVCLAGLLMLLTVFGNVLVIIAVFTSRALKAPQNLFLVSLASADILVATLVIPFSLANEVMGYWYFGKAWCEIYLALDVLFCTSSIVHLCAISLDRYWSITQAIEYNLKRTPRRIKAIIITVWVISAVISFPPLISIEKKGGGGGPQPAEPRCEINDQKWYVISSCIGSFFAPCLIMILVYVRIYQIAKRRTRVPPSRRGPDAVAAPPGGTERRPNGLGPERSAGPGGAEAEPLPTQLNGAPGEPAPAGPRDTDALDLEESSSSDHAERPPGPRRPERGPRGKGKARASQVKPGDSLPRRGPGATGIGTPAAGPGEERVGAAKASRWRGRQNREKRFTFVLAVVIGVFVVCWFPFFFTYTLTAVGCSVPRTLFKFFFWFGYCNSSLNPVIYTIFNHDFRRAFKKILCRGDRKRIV
# [27] = target: Muscarinic acetylcholine receptor M3 (Homo sapiens) (UniProt P20309); settings: Compound concentration 10.0 uM
# [28] = target: Histamine H2 receptor (Homo sapiens) (UniProt P25021); settings: Compound concentration 10.0 uM
# [29] = target: Histamine H1 receptor (Homo sapiens) (UniProt P35367); test: H1/PYRIL/HS Eurofins SafetyScreen44 (BI); settings: Compound concentration 10.0 uM
# [30] = target: D(3) dopamine receptor (Homo sapiens) (UniProt P35462); settings: Compound concentration 10.0 uM
# [31] = target: Sodium-dependent noradrenaline transporter (Homo sapiens) (UniProt P23975); settings: Compound concentration 10.0 uM
# Sequence of Delta-type opioid receptor (Homo sapiens) (P41143 whole entry): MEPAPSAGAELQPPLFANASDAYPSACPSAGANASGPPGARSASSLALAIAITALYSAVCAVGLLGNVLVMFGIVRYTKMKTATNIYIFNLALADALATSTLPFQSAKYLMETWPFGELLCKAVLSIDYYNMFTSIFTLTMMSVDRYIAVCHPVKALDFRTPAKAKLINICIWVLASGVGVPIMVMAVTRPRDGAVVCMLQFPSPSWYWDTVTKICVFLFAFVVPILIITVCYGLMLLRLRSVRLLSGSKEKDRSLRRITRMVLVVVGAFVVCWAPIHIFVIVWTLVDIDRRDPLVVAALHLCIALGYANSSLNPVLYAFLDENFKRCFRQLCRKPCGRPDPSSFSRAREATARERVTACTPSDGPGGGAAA
# Sequence of Histamine H2 receptor (Homo sapiens) (P25021 whole entry): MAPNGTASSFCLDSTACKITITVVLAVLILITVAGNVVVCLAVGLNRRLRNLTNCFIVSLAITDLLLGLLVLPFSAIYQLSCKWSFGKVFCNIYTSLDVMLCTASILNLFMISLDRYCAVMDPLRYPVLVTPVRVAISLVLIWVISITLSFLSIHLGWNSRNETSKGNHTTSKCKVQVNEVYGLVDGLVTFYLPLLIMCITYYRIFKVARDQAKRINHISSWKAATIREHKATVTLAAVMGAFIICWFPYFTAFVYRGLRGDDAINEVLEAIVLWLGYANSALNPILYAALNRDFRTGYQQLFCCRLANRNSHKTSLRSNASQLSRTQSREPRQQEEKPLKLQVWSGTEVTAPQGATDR
# Sequence of 5-hydroxytryptamine receptor 2A (Homo sapiens) (P28223 whole entry): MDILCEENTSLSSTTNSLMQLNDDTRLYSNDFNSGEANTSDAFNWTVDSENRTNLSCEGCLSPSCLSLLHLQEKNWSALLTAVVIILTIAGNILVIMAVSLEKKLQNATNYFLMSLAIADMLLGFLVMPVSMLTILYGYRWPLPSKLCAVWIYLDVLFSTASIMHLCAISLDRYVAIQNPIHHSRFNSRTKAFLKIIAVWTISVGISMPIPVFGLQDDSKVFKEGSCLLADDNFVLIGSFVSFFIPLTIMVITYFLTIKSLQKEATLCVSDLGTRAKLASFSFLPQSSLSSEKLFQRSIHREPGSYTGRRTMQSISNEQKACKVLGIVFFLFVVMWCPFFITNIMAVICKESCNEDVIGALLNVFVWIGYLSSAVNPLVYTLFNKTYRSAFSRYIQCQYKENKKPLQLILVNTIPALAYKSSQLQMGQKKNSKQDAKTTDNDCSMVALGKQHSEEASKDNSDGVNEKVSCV
# Sequence of Muscarinic acetylcholine receptor M3 (Homo sapiens) (P20309 whole entry, looked up): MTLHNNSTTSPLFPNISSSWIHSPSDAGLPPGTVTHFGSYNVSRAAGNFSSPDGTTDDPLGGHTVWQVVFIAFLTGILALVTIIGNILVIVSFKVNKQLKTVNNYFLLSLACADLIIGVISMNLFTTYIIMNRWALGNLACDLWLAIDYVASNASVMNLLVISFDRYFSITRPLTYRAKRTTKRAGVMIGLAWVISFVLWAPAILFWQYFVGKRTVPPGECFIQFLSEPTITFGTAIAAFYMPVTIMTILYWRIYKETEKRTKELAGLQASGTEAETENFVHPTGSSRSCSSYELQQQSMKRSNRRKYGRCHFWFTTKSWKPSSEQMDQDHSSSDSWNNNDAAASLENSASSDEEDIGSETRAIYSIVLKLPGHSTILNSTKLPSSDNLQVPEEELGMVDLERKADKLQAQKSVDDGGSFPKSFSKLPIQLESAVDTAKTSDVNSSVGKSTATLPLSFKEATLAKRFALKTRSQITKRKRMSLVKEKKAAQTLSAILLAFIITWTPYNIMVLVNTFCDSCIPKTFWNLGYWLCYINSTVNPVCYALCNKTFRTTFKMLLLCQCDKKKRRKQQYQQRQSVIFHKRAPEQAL
# Sequence of Sodium-dependent dopamine transporter (Homo sapiens) (Q01959 whole entry): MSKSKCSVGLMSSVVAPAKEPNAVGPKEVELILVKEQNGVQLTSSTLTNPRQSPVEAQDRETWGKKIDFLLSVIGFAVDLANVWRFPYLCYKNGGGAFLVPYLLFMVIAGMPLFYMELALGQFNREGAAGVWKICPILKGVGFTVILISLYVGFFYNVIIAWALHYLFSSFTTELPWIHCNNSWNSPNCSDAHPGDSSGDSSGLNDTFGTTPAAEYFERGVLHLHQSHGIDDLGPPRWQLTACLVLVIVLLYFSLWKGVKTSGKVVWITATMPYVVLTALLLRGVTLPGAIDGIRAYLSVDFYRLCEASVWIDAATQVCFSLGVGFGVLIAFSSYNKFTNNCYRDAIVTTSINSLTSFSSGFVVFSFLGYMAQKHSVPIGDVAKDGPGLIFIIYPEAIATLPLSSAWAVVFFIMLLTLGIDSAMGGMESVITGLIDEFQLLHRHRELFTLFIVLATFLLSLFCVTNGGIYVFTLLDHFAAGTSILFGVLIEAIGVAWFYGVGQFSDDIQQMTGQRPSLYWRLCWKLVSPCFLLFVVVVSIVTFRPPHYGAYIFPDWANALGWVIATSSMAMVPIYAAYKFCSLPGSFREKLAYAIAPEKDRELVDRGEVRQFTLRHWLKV
# Sequence of Alpha-1D adrenergic receptor (Homo sapiens) (P25100 whole entry): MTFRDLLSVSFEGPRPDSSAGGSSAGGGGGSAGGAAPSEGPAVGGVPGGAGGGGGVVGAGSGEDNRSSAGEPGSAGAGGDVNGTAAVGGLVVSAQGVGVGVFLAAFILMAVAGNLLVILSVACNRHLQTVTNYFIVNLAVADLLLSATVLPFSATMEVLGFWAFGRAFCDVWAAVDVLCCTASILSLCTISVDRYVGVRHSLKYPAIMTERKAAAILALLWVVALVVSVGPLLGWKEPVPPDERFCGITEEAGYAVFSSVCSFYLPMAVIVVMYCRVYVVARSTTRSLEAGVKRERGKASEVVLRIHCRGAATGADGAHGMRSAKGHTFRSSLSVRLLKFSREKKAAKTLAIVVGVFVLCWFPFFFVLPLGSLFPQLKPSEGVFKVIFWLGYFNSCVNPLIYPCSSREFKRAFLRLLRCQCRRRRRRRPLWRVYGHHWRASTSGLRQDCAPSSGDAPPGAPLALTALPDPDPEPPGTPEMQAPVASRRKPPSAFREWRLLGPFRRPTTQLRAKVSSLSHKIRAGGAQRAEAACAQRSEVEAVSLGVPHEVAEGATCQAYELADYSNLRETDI
# Sequence of Alpha-1B adrenergic receptor (Homo sapiens) (P35368 whole entry): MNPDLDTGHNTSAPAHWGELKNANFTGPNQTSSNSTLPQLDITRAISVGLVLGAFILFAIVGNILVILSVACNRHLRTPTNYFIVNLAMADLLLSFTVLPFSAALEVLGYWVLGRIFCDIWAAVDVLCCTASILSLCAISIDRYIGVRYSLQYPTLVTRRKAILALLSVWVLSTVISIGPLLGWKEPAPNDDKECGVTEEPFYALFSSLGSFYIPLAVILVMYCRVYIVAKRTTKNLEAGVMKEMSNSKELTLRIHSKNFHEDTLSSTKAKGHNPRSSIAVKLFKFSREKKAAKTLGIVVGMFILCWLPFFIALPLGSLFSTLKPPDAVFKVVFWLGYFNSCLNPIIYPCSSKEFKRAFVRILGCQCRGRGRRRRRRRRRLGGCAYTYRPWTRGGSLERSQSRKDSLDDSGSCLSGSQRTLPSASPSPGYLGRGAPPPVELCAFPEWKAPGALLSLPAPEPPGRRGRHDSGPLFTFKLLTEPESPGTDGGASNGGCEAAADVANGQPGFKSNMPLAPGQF
# Sequence of Sodium-dependent noradrenaline transporter (Homo sapiens) (P23975 whole entry): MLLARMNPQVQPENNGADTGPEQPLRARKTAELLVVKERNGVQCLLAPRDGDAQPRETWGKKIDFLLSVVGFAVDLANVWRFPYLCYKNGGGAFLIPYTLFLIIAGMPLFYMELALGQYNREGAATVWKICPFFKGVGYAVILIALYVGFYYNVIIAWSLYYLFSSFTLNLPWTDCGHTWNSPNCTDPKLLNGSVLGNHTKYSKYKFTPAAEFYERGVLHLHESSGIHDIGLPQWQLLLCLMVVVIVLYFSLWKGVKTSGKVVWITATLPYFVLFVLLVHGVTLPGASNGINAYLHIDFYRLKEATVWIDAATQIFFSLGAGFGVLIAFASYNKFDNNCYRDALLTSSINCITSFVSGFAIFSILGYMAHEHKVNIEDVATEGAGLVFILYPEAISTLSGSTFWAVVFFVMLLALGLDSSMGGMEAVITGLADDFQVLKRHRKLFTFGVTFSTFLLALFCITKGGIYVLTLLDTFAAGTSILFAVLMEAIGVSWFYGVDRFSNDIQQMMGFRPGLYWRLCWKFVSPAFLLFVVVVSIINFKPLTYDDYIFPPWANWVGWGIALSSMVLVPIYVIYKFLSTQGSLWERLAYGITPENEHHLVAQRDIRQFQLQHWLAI
# Sequence of 5-hydroxytryptamine receptor 1B (Homo sapiens) (P28222 whole entry): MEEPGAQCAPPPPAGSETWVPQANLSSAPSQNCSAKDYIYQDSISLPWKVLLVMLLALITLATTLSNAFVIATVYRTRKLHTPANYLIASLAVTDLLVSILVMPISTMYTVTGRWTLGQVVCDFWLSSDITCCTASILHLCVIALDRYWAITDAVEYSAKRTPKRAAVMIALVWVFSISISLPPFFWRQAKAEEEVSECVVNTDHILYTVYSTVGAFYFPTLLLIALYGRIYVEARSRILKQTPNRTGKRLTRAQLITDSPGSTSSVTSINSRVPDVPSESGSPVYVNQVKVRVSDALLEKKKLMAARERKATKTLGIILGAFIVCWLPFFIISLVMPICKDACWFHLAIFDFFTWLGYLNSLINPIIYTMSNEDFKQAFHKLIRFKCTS
# Sequence of D(3) dopamine receptor (Homo sapiens) (P35462 whole entry): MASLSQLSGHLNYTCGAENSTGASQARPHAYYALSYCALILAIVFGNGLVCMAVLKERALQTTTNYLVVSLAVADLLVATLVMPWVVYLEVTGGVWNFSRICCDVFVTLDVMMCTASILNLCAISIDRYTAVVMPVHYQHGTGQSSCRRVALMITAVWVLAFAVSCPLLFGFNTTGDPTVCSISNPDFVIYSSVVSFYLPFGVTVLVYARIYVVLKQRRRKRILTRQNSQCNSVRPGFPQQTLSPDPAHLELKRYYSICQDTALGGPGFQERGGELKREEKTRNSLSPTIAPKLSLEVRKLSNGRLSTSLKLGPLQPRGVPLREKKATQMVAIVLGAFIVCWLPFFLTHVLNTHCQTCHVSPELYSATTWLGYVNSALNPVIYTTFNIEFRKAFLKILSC
SMILES,residual activity [1] [%],residual activity [2] [%],inhibition [3] [%],residual activity [4] [%],residual activity [5] [%],inhibition [6] [%],inhibition [7] [%],residual activity [8] [%],residual activity [9] [%],residual activity [10] [%],activity at 10 µM [11],residual activity [12] [%],residual activity [13] [%],residual activity [14] [%],residual activity [15] [%],inhibition [16] [%],inhibition [17] [%],inhibition [18] [%],inhibition [19] [%],residual activity [20] [%],other results
CCn1c(=O)c(C)cn(Cc2nnc(-c3ccc(F)c(O)c3F)s2)c1=O,95,103,24.9,97,87,-1.34,-10,78,84,99,84% (not active),98,93,115,95,8.17,9.87,-5.24,16,84,residual activity [21]: 88%; inhibition [22]: 0.32%; residual activity [23]: 101%; residual activity [24]: 91%; residual activity [25]: 76%; inhibition [26]: 4.94%; inhibition [27]: -3.96%; inhibition [28]: -3.03%; residual activity [29]: 84%; inhibition [30]: 7.03%; inhibition [31]: 3.4%
CCn1c(=O)c(C)cn(Cc2nnc(-c3ccc(F)c(OC)c3F)s2)c1=O,94,81,12.4,104,102,5.29,-0.13,99,101,117,93% (not active),110,103,94,103,-6.46,-0.06,-0.14,8.52,92,residual activity [21]: 92%; inhibition [22]: 3.82%; residual activity [23]: 104%; residual activity [24]: 110%; residual activity [25]: 88%; inhibition [26]: 16.4%; inhibition [27]: -1.37%; inhibition [28]: -1.31%; residual activity [29]: 100%; inhibition [30]: -2.24%; inhibition [31]: 3.37%
